Data reported in article PMC13324451 (The Journal of Biological Chemistry, 2026).

Biological target: T1, RhsF-CT (Chromobacterium violaceum, UniProt Q7NY44)
T1 construct: gene CV_1431; C-terminal toxin domain, residues 1393-1513, 14 kDa; His6-TEV tag, apparently kept
Assay type: biochemical

In the case of `NC(=O)c1ccc[n+]([C@@H]2O[C@H](COP(=O)(O)OP(=O)(O)OC[C@H]3O[C@@H](n4cnc5c(N)ncnc54)[C@H](O)[C@@H]3O)[C@@H](O)[C@H]2O)c1` [NAD^+], the “RNA ADP-ribosylation, TBE-urea gel and anti-ADP-ribose immunoblot” value was “indicating that RhsF-CT can transfer ADP-ribose from NAD^+ to the RNA”.
